Values after ≈ are worked out from the molar mass of the structure shown.
What was measured:
Plasmodium berghei = experiment: Antiplasmodial activity against Plasmodium berghei assessed as inhibition of schizont maturation at 5 ug/ml relative to control; type: functional
Tobacco mosaic virus [1] = experiment: In vivo antiviral activity against tobacco mosaic virus assessed as virus inactivation at 500 ug/ml relative to control; type: functional; conditions: dose 500 µg/ml
Tobacco mosaic virus [2] = experiment: In vivo antiviral activity against tobacco mosaic virus assessed as curative activity at 500 ug/ml relative to control; type: functional; conditions: dose 500 µg/ml
Tobacco mosaic virus [3] = experiment: In vivo antiviral activity against tobacco mosaic virus assessed as protection activity at 500 ug/ml relative to control; type: functional; conditions: dose 500 µg/ml
Acetylcholinesterase [4] = target: T1, Acetylcholinesterase (Electrophorus electricus, UniProt O42275); experiment: Inhibition of electric eel AChE using acetylthiocholine iodide as substrate measured after 20 mins by Ellmans method
T1 sequence (O42275 whole entry): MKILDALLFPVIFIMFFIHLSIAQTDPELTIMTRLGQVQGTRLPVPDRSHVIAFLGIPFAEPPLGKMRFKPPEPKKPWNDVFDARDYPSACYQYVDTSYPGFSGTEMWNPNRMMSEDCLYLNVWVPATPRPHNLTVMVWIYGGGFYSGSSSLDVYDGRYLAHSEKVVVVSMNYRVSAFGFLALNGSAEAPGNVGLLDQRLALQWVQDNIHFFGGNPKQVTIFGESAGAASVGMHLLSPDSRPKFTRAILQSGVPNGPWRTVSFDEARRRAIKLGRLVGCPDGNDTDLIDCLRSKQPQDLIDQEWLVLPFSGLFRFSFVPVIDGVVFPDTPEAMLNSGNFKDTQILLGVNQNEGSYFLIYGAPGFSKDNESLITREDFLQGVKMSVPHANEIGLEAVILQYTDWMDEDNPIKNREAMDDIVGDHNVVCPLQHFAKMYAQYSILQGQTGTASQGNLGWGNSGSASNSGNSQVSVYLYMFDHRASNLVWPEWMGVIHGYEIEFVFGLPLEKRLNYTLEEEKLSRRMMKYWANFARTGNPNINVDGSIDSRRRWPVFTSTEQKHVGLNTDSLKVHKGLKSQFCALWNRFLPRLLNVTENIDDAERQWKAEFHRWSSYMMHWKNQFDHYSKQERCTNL

[5] = target: T2, cGMP-specific 3',5'-cyclic phosphodiesterase (Homo sapiens, UniProt O76074); experiment: Inhibition of PDE5 (unknown origin)
[6] = Inhibition of equine serum BuChE using butyrylthiocholine chloride as substrate
Acetylcholinesterase [7] = target: T1, Acetylcholinesterase; experiment: Inhibition of electric eel AChE using acetylthiocholine iodide as substrate
[8] = target: T3, Protein deacetylase HDAC6 (Homo sapiens, UniProt Q9UBN7); experiment: Inhibition of human HDAC6
T3 sequence (Q9UBN7 whole entry): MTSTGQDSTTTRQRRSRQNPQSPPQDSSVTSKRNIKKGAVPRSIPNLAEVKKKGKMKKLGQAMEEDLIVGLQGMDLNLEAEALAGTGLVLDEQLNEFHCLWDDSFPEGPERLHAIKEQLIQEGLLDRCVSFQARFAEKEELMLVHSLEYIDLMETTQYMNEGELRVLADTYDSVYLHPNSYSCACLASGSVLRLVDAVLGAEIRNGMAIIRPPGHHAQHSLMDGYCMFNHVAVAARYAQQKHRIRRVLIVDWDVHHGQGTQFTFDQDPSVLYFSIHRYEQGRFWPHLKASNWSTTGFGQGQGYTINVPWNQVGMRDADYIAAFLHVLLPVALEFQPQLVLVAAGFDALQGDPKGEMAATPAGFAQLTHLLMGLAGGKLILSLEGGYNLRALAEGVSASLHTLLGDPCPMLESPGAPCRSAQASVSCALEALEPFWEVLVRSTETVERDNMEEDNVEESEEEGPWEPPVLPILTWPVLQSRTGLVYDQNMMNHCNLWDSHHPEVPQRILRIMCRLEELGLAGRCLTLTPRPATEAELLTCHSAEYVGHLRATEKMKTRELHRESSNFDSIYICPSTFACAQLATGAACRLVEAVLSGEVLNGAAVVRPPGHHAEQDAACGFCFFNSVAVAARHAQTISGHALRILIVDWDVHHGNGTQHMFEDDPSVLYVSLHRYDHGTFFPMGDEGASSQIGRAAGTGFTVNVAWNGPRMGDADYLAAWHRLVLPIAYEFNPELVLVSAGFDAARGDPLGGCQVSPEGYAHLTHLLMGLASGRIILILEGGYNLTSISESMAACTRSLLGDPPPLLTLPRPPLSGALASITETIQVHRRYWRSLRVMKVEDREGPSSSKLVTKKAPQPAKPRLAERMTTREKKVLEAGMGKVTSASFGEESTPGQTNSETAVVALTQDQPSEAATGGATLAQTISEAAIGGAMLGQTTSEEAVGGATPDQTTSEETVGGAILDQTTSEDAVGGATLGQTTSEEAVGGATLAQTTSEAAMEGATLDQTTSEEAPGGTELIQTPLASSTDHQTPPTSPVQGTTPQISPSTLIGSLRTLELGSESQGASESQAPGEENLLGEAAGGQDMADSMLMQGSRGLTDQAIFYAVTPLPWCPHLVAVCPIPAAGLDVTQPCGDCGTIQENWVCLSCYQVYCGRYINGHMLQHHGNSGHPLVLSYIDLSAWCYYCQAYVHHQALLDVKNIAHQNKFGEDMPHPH

Gaeumannomyces graminis [9] = experiment: Antifungal activity against Gaeumannomyces graminis at 10 mg/ml relative to control; type: functional
Gaeumannomyces graminis [10] = experiment: Antifungal activity against Gaeumannomyces graminis; type: functional, organism-based
[11] = target: T2, cGMP-specific 3',5'-cyclic phosphodiesterase; experiment: Inhibition of human PDE5A using fluorescence-labelled substrate
Histone deacetylase 1 = Histone deacetylase 1 (Homo sapiens, UniProt Q13547); experiment: Inhibition of human HDAC1
Chain of Histone deacetylase 1 (Q13547 whole entry): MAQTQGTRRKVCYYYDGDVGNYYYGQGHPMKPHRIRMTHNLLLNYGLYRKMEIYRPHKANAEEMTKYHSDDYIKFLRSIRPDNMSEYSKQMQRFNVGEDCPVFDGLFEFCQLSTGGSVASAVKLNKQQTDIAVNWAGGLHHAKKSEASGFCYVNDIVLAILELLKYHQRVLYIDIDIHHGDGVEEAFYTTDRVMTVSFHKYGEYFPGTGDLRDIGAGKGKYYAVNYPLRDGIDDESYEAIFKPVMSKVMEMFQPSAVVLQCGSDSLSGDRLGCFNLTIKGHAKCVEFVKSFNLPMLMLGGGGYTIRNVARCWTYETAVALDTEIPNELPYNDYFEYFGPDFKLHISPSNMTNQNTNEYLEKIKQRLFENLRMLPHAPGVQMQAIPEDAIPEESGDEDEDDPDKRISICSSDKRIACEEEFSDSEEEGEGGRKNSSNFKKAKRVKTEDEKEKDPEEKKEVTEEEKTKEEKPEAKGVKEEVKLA

[12] = target: Amyloid-beta precursor protein (Homo sapiens) (UniProt P05067); experiment: Inhibition of self-induced amyloid beta (1 to 42 ) (unknown origin) aggregation at 20 uM measured after 24 hrs by thioflavin-T fluorescence method relative to control
Chain of Amyloid-beta precursor protein (Homo sapiens) (P05067 whole entry): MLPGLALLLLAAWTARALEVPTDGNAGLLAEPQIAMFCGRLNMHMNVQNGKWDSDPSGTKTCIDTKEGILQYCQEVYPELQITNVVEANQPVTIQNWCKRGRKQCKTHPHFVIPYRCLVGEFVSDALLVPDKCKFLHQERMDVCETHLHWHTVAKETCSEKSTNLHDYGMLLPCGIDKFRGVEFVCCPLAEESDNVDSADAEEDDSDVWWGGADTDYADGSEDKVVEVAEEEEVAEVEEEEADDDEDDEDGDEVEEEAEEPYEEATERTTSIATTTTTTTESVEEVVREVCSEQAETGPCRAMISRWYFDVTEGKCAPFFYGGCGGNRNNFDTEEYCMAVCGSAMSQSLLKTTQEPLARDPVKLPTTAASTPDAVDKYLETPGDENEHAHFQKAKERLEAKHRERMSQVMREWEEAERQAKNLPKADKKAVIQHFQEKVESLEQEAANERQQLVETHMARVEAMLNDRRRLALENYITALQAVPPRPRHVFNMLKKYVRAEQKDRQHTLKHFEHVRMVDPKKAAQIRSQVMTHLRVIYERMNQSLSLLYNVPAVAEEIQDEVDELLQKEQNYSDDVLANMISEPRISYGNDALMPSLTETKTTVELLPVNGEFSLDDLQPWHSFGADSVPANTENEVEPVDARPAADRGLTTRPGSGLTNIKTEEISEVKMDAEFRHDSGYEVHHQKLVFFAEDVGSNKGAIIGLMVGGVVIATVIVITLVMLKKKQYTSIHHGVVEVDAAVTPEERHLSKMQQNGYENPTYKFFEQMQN

[13] = Inhibition of Plasmodium falciparum IspD
[14] = target: T2, cGMP-specific 3',5'-cyclic phosphodiesterase; experiment: Inhibition of human PDE5
[15] = target: T4, Kinesin-like protein KIF11 (Homo sapiens, UniProt P52732); experiment: Inhibition of Eg5 ATPase activity (unknown origin)
T4 sequence (P52732 whole entry): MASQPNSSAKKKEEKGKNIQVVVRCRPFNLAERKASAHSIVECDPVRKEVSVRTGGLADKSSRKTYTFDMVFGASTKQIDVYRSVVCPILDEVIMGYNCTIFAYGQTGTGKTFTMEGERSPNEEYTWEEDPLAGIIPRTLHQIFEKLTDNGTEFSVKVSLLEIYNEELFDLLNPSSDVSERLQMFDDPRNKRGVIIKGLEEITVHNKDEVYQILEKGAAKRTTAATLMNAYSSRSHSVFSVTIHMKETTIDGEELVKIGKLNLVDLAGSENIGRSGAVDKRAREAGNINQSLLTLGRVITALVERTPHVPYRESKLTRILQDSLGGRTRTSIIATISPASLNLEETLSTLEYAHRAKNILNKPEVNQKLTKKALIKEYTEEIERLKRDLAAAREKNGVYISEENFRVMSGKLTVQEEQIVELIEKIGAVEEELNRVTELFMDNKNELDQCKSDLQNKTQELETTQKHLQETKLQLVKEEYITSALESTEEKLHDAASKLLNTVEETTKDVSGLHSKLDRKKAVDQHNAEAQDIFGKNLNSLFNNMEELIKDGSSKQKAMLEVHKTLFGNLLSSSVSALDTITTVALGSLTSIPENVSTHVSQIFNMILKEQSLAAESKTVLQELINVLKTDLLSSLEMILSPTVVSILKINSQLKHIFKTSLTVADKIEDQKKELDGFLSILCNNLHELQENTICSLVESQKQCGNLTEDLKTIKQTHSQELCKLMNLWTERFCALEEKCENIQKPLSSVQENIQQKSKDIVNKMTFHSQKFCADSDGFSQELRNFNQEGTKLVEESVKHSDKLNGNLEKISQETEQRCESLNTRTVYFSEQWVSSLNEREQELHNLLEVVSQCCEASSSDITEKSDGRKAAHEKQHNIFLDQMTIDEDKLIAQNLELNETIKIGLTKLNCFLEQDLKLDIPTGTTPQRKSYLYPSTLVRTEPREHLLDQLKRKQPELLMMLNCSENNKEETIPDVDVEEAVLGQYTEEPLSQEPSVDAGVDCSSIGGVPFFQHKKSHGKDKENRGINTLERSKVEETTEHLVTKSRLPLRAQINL

[16] = Inhibition of equine serum BuChE using S-butylthiocholine iodide as substrate measured after 20 mins by Ellmans method; parameters: species or system […]

Q: For `COC(=O)[C@@H]1Cc2c([nH]c3ccccc23)[C@@H](c2ccc3c(c2)OCO3)N1`, which inhibition at 5 µg/mL (Plasmodium berghei) is on record?
A: Its inhibition at 5 µg/mL is 71.8%.

Q: Which inhibition at 5 µg/mL (Plasmodium berghei) does the source give for `COC(=O)[C@@H]1Cc2c([nH]c3ccccc23)[C@@H](c2cccnc2)N1` here?
A: Its inhibition at 5 µg/mL is 86.2%.

Q: For `CC1N[C@H](C(=O)N/N=C/c2ccc(Cl)cc2)Cc2c1[nH]c1ccccc21` (stereo partly drawn), which Activity (Tobacco mosaic virus [1]) is on record?
A: Its Activity is 66.9%.

Q: And the Activity (Tobacco mosaic virus [2])?
A: The Activity was 63.2%.

Q: What about the Activity (Tobacco mosaic virus [3]) of the same compound?
A: The Activity was 68.1%.

Q: With `O=C(CCCCN1CCc2c([nH]c3ccccc23)C1)Oc1ccc(/C=C2/CCc3nc4ccccc4c(=O)n32)cc1` as the compound, how does the IC50 (Acetylcholinesterase [4]) read?
A: The IC50 was 1.08 nM.

Q: Which Activity (Tobacco mosaic virus [1]) does the source give for `C[C@@H]1N[C@@H](C(=O)NN)Cc2c1[nH]c1ccccc21` here?
A: The Activity was 64.2%.

Q: And the Activity (Tobacco mosaic virus [2])?
A: Its Activity is 57.2%.

Q: What about the Activity (Tobacco mosaic virus [3]) of the same compound?
A: The Activity was 59.5%.

Q: With `COc1cccc2c1C(=O)N1CCc3c([nH]c4cccc(OC)c34)[C@@H]1C2C` (stereo partly drawn) as the compound, how does the IC50 [5] read?
A: The IC50 was 35 nM.

Q: Which results are given for `CC1N[C@@H](C(=O)N/N=C/C2CCCCC2)Cc2c1[nH]c1ccccc21` (stereo partly drawn)?
A: Activity (Tobacco mosaic virus [1]): 75.8%; Activity (Tobacco mosaic virus [2]): 62.8%; Activity (Tobacco mosaic virus [3]): 69.2%

Q: With `CCOC(=O)[C@H]1Cc2c([nH]c3ccccc23)[C@H](C)N1` as the compound, how does the Activity (Tobacco mosaic virus [1]) read?
A: The Activity was 50.4%.

Q: What about the Activity (Tobacco mosaic virus [2]) of the same compound?
A: The Activity was 43.9%.

Q: What about the Activity (Tobacco mosaic virus [3]) of the same compound?
A: The Activity was 47.9%.

Q: For `CC1c2[nH]c3ccccc3c2CCN1C(=O)/C=C/c1ccc(O)c(O)c1` (stereo not drawn), which IC50 [6] is on record?
A: The IC50 was 1320 nM.

Q: What about the IC50 (Acetylcholinesterase [7]) of the same compound?
A: Its IC50 is 21300 nM.

Q: With `CN1C(=O)C2CN(Cc3c2c2ccccc2n3Cc2ccc(C(=O)NO)cc2)C1=O` (stereo not drawn) as the compound, how does the IC50 [8] read?
A: The IC50 was 0.7 nM.

Q: What does the source list for `C[C@@H]1COC(c2ccccc2NC(=O)[C@@H]2Cc3c([nH]c4ccccc34)[C@H](C)N2)=N1`?
A: inhibition at 10000 µg/mL (Gaeumannomyces graminis [9]): 72.2%; EC50 (Gaeumannomyces graminis [10]): 3.53 µg/mL (≈ 9.09 µM)

Q: What does the source list for `O=C(Cc1cnc(N2CCC(CN3CC(=O)N4[C@H](c5ccc6c(c5)OCO6)c5[nH]c6ccccc6c5C[C@@H]4C3=O)CC2)nc1)NO`?
A: IC50 [11]: 653 nM; IC50 (Histone deacetylase 1): 197 nM; IC50 [8]: 239 nM

Q: Which results are given for `COc1ccc2[nH]c3c(c2c1)CCN(C(=O)/C=C/c1ccc(O)c(O)c1)C3C` (stereo not drawn)?
A: IC50 [6]: 6470 nM; inhibition [12]: 65%; IC50 (Acetylcholinesterase [7]): 75300 nM

Q: With `O=C(O)[C@@H]1Cc2c([nH]c3ccccc23)[C@@H](c2ccc(Cl)cc2Cl)N1` as the compound, how does the IC50 [13] read?
A: Its IC50 is 210 nM.

Q: For `O=C(CCCCCCN1CC(=O)N2[C@H](c3ccc(Br)cc3)c3[nH]c4ccccc4c3C[C@@H]2C1=O)NO`, which IC50 [11] is on record?
A: Its IC50 is 46 nM.

Q: Which IC50 [14] does the source give for `COC(=O)c1cc2c(cn1)[nH]c1ccccc12` [BETA-CCM] here?
A: The IC50 was 800 nM.

Q: Which inhibition at 10000 µg/mL (Gaeumannomyces graminis [9]) does the source give for `C[C@@H]1N[C@H](C(=O)Nc2ccccc2C2=N[C@@H](C)CO2)Cc2c1[nH]c1ccccc21` here?
A: Its inhibition at 10000 µg/mL is 65.8%.

Q: Which Activity (Tobacco mosaic virus [1]) does the source give for `CC1N[C@@H](C(=O)N/N=C/c2ccc(Cl)cc2)Cc2c1[nH]c1ccccc21` (stereo partly drawn) here?
A: The Activity was 70.4%.

Q: What about the Activity (Tobacco mosaic virus [2]) of the same compound?
A: Its Activity is 71.5%.

Q: And the Activity (Tobacco mosaic virus [3])?
A: The Activity was 64.2%.

Q: With `CCCCOC(=O)[C@H]1Cc2c([nH]c3ccccc23)[C@H](C)N1` as the compound, how does the Activity (Tobacco mosaic virus [1]) read?
A: The Activity was 51.3%.

Q: What about the Activity (Tobacco mosaic virus [2]) of the same compound?
A: Its Activity is 42.2%.

Q: And the Activity (Tobacco mosaic virus [3])?
A: The Activity was 43.2%.

Q: Which Activity (Tobacco mosaic virus [1]) does the source give for `CNCC(=O)N[C@@H](CO)C(=O)N[C@H]1[C@H](O)[C@@H](O)[C@H](n2ccc(N)nc2=O)O[C@@H]1C(N)=O` [NINGNANMYCIN] here?
A: Its Activity is 57.3%.

Q: And the Activity (Tobacco mosaic virus [2])?
A: The Activity was 54.2%.

Q: What about the Activity (Tobacco mosaic virus [3]) of the same compound?
A: Its Activity is 55%.

Q: With `CCCCN1C(=O)[C@@H]2Cc3c([nH]c4ccccc34)[C@@H](c3cccc(O)c3)N2C1=O` as the compound, how does the IC50 [15] read?
A: The IC50 was 4300 nM.

Q: What does the source list for `c1ccc2c(NCCCCCCCN3CCc4c([nH]c5ccccc45)C3)c3c(nc2c1)CCCC3`?
A: IC50 (Acetylcholinesterase [4]): 17.4 nM; IC50 [16]: 3.16 nM

— ChEMBL document CHEMBL5230151, “A review of synthetic bioactive tetrahydro-β-carbolines: A medicinal chemistry perspective” (Eur J Med Chem, 2021)
